Tests used:
J774 cells [1] = experiment: Trehalose uptake with and without extracellular ATP; type: cell-based
Description: Cell extracts were assayed for trehalose concentrations by separating carbohydrate peaks on a Hamilton RCX10 column, and then analyzing using pulsed amperometric electrochemical detection with an ESA Coulochem cell. […] The white bars are results from treatment for 15 minutes at 37° C. The cross-hatched bars are results from treatment for 15 minutes at 37° C., followed by 2 hours at 0° C. […] Each bar in FIG. 7 represents the mean of several different measurements. Although leaving the pores open for the longer periods of time at 37° C. can lead to cell death, the pores may be left open for longer periods at lower temperatures, while still leaving the cells viable and still allowing higher uptake of trehalose. At least 40% of the cells survived this treatment. We expect that the survivorship percentage will be improved by reducing the time the cells are held at 37° C. prior to chilling; future experiments will be done along these lines.

porated cells = experiment: Early unpublished ATP-induced cell poration, cell survival; type: cell-based; details: ATP-induced poration as in literature, pores not closed early; usually within about 24 hours
Excerpt: We observed that various dyes were indeed taken up by the cells as reported in the literature. But, at least in our experiments, we also invariably observed that the cells died soon thereafter.

J774 cells [2] = experiment: Cell proliferation (cell counts) after ATP poration; type: cell-based, mouse; details: 15 min in Buffer 1+5 mM ATP, then spinner flask culture; FIG. 3
Description: To introduce compounds that were otherwise membrane-impermeable into the cytoplasm, J774.A1 cells were centrifuged at 175 g; and were then resuspended in Buffer 1 (50 mM K2HPO4/KH2PO4, pH 7.0, 365 mOsm, 250 mM trehalose, 1 mM MgSO4, 5 mM glucose, supplemented with Basal Medium Eagle Vitamin Solution and MEM Amino Acids Solution (Invitrogen, Grand Islands, N.Y.), with each of the last two components diluted to 1×). […] The cells were incubated for 15 min or 30 min at 37° C. in sealed microtubes.
(§1) To assess the effect of ATP-induced permeability on cell viability, cells were grown in suspension after activation and subsequent closure of the P2X7 receptor, as described above. […] The number of viable cells at different times was determined by counting with a hemocytometer after diluting the sample 1:1 with a 0.4% Trypan blue solution (Sigma, St. Louise, Mo.). Alternatively, cell viability was assessed by monitoring the metabolic activity of the cells with AlamarBlue™ (BioSource International, Inc., Camarillo, Calif.). […] After adding 20,000 to 40,000 cells to each well, absorbances at λ=570 nm and λ=600 nm were measured with a micro plate reader (Spectramax Plus, Molecular Devices, Sunnyvale, Calif.) at different times. […]
In another series of experiments, we assessed the degree to which cell proliferation was suspended following poration. […]

J774 cells [3] = experiment: Calorimetric heat dissipation after ATP poration; type: cell-based, mouse; details: Buffer 1+5 mM ATP, 37° C., FIG. 4
Description: Calorimetric measurements were conducted to assess the influence of various treatments on the total energy flow of J774 cells. A 2277 thermal activity monitor (LKB Produkter, Bromma, Sweden) was used to measure the heat dissipation of J774 cells in suspension. A 4 mL static ampule charged with 2.7 mL water was used as a reference vessel. Static and dynamic calibrations against water in both ampules were performed before the experimental heat signals were measured. For the experiments, the sample ampule was charged with 2.7 mL of cell suspension. An aliquot of the spinner flask culture was diluted with standard culture medium to give 130,000-250,000 cells in 2.7 mL, which was equilibrated with 10% CO2 and 90% air. All calorimetric measurements were performed at 37° C. A two-hour period was allowed for thermal equilibration after lowering the ampule into the calorimeter. The power signal was then recorded for the next 20 hours. The ongoing proliferation of the cells produced a continuous increase in the heat signal during the measurements.
In this series of experiments, we assessed the influence of ATP-induced poration on the heat dissipation of J774 cells. […] Each bar in FIG. 4 represents the mean±standard deviation for three to six separate measurements. The pair of asterisks for the bar at three hours indicates a statistically significant difference from control (P<0.05).

J774 cells [4] = experiment: AlamarBlue reduction, metabolic activity after ATP-dependent poration; type: cell-based, mouse
Description: J774.A1 mouse macrophage cells (ATCC, Manassas, Va.) were grown in 75 cm^2 cell culture flasks (Corning Incorporated, Corning, N.Y.) containing a standard culture medium of Dubelco's modified Eagle's medium without sodium pyruvate, supplemented with 10% fetal bovine serum, 100 units/mL penicillin, 100 μg/mL streptomycin, and 2 mM glutamine (“DMEM”) (all from Invitrogen, Grand Islands, N.Y.). The cells were maintained in a humidified atmosphere of 10% CO2 and 90% air at 37° C. The number of cells per flask was determined with a hemocytometer after removal with a cell scraper. […]
as §1

J774 cells [5] = experiment: Viability (trypan blue exclusion) after air-drying and rehydration; type: cell-based, mouse; details: 1 μM Trifluoperazine and 200 nM cyclosporin A together, in EB drying buffer and rehydration DMEM; versus control; FIG. 10
J774 cells [6] = experiment: HPLC of nucleotides in extracts of cells loaded by ATP poration; type: cell-based, mouse; details: for intracellular nucleotides after loading (HPLC chromatogram): 20 min poration at 37° C. in DMEM pH 7.4 with 5 mM ATP, 5 mM AMP or 3.5 mM AMPS, FIG. 5
Description: Acid soluble extracts of cell suspensions were prepared by adding ice-cold 70% perchloric acid to a final concentration of 7% (w/v). Acid insoluble fractions were removed by centrifugation for 10 min at 10,000 g and 4° C. (Eppendorf Centrifuge 5417R, Fischer Scientific, Pittsburgh, Pa.). Extracts were neutralized with ice-cold 5 M K2CO3, and were stored at −80° C. until analyzed. The potassium perchlorate precipitate was removed by centrifugation as above. Analyses were performed using a Dionex HPLC system, including a GP 50 gradient pump, an AS 50 auto-sampler and an AS 50 thermal compartment (Dionex, Sunnyvale, Calif.). Aliquots of the supernatant were applied to a 4.6 mm×25 cm reverse-phase column (Synergy 4M Hydro RP 80A, Phenomenex, Torrance, Calif.),and eluted isocratically for 15 min with a starting buffer of 50 mM K2HPO4/KH2PO4, pH 6.2, containing 10 mM tetrabutyl-ammonium hydrogen sulfate (Sigma, St. Louise, Mo.) at a flow rate of 1 mL/min at 30° C. Then a linear gradient from 0% to 25% acetonitrile was applied over 40 min. Absorbance of the effluent was monitored with a PDA-100 photodiode array detector (Dionex, Sunnyvale, Calif.) at wavelengths from λ=190 nm to λ=390 nm. Peaks were identified by comparison with retention times of standards, as well as by analyzing peak spectra between λ=190 nm and λ=390 nm from a recorded 3D-field with Chromeleon™ software (Dionex, Sunnyvale, Calif.). Concentrations of nucleotides were determined from a measurement of peak area at λ=260 nm. Calibration curves were linear over the range assayed.
During poration, the cells were exposed to 5 mM AMP, or to 3.5 mM AMPS. Cells were extracted with perchloric acid after incubation. FIG. 5(A) depicts an HPLC chromatogram of the extracted AMP-loaded cells, and FIG. 5(B) depicts an HPLC chromatogram of the extracted AMPS-loaded cells.
The experiment was otherwise conducted as described in Example 5 and illustrated in FIG. 5(B), except that cellular AMP-deaminase was inhibited by adding 35 μM coformycin to the medium.

[7] = tested on: AMP-activated protein kinase; details: cited from earlier work

**Q.** For Nc1ncnc2c1ncn2[C@@H]1O[C@H](COP(=O)(O)OP(=O)(O)OP(=O)(O)O)[C@@H](O)[C@H]1O [ATP, adenosine 5′-triphosphate], which “cells surviving extended pore opening at low temperature” value (J774 cells [1]; Buffer 1+5 mM ATP, 15 min at 37° C. followed by 2 hours at 0° C.) is on record?
**A.** At least 40%

**Q.** What about the “fate of porated cells in early work” value (porated cells) of the same compound?
**A.** invariably died

**Q.** And the “time for which cell proliferation stopped after poration” value (J774 cells [2])?
**A.** approximately 20 hours

**Q.** And the “heat dissipation 3 hours after poration” value (J774 cells [3]; versus control cells)?
**A.** significantly reduced

**Q.** What about the “heat signal 24 hours after poration” value (J774 cells [3]; versus untreated control cells) of the same compound?
**A.** indistinguishable from that for the untreated control cells

**Q.** What about the “metabolic activity when poration time increased from 15 minutes to 30 minutes” value (J774 cells [4]; Buffer 1+5 mM ATP, measured 17 h and 41 h after treatment, FIG. 2) of the same compound?
**A.** decreased substantially

**Q.** And the “reduction of metabolic activity (AlamarBlue reduction)” value (J774 cells [4]; J774 cells, 40,000 per well, 15 min incubation, versus untreated control, FIG. 1)?
**A.** about 50%

**Q.** With cyclosporin A as the compound, how does the “viability post-drying with apoptosis inhibitors” value (J774 cells [5]) read?
**A.** higher viability post-drying

**Q.** With Nc1ncnc2c1ncn2[C@@H]1O[C@H](COP(O)(O)=S)[C@@H](O)[C@H]1O [AMPS, Adenosine 5′-phosphorothioate] as the compound, how does the “uptake by the cells in the absence of ATP” value (J774 cells [1]; no pore opening, data not shown) read?
**A.** only negligible concentrations

**Q.** And the “intracellular AMPS with AMP-deaminase inhibited” value (J774 cells [6]; 3.5 mM AMPS, 5 mM ATP poration, 35 μM coformycin in medium, FIG. 6)?
**A.** substantial intracellular concentration of AMPS was observed

**Q.** What about the “intracellular nucleotides after loading (HPLC chromatogram)” value (J774 cells [6]) of the same compound?
**A.** substantial production of a new compound

**Q.** And the “Km value, fold lower than the natural effector 5′-AMP” value [7]?
**A.** approximately 6 fold

**Q.** For Nc1ncnc2c1ncn2[C@@H]1O[C@H](COP(=O)(O)O)[C@@H](O)[C@H]1O [AMP], which “intracellular nucleotides after loading (HPLC chromatogram)” value (J774 cells [6]) is on record?
**A.** an increase in ADP, and a substantial increase in IMP

**Q.** Which “effect on the metabolism of AMPS in the cells” value (J774 cells [6]; 35 μM coformycin in medium, AMPS-loaded porated cells, FIG. 6) does the source give for OC[C@H]1O[C@@H](n2cnc3c2N=CNC[C@H]3O)[C@H](O)[C@@H]1O [coformycin] here?
**A.** inhibited the metabolism of AMPS in the cells

**Q.** With OC[C@H]1O[C@H](O[C@H]2O[C@H](CO)[C@@H](O)[C@H](O)[C@H]2O)[C@H](O)[C@@H](O)[C@@H]1O [trehalose] as the compound, how does the “trehalose uptake in ATP-treated cells” value (J774 cells [1]; Buffer 1+5 mM ATP (250 mM trehalose), versus Buffer 1 without ATP, 15 min 37° C. or plus 2 h 0° C., FIG. 7) read?
**A.** significantly higher trehalose uptake

**Q.** What about the “trehalose uptake in the absence of extracellular ATP” value (J774 cells [1]; Buffer 1 without ATP, FIG. 7) of the same compound?
**A.** Some uptake of trehalose was observed

**Q.** For CN1CCN(CCCN2c3ccccc3Sc3ccc(C(F)(F)F)cc32)CC1 [trifluoperazine, Trifluoperazine], which “viability post-drying with apoptosis inhibitors” value (J774 cells [5]) is on record?
**A.** higher viability post-drying

Reference: US7314755B2, “Preservation of eukaryotic cells using reversible pore formation” (Board of Supervisors of Louisiana State University and …, priority 2003, dated 2008)
